Measurements: paper PMC6269755, “In Vitro Antiprotozoal Activity of Triterpenoid Constituents of Kleinia odora Growing in Saudi Arabia” (Molecules, 2013)
Like-named read-outs stand apart in the source and are kept apart here.

Assays:
[1] = tested on: T. cruzi Tulahuen CL2 (benznidazole-sensitive); experiment: Antitrypanosomal activity, T. cruzi on MRC-5 cells; type: cell-based, Trypanosoma cruzi; settings: for IC50: pure compounds, 7 days; for T. cruzi SI: selectivity index vs MRC-5 cytotoxicity
Description: (§1) The integrated panel of microbial screens and standard screening methodologies were adopted as previously described. All assays were performed in triplicate at the Laboratory of Microbiology, Parasitology and Hygiene at the University of Antwerp (Belgium). […] Selectivity of activity was assessed by simultaneous evaluation of cytotoxicity on a fibroblast (MRC-5) cell line.
(§2) Trypanosoma brucei Squib-427 strain (suramin-sensitive) was cultured at 37 °C and 5% CO2 in Hirumi-9 medium, supplemented with 10% fetal calf serum (FCS). About 1.5 × 10^4 trypomastigotes/well were added to each well and parasite growth was assessed after 72 h at 37 °C by adding resazurin [35]. For Chagas disease, T. cruzi Tulahuen CL2 (benznidazole-sensitive) was maintained on MRC-5 cells in minimal essential medium (MEM) supplemented with 20 mM L-glutamine, 16.5 mM sodium hydrogen carbonate and 5% FCS. In the assay, 4 × 10^3 MRC-5 cells and 4 × 10^4 parasites were added to each well and after incubation at 37 °C for 7 days, Parasite growth was assessed by adding the […]. The color reaction was read at 540 nm after 4 h and absorbance values were expressed as a percentage of the blank controls.

[2] = tested on: Chloroquine-resistant P. falciparum K 1-strain; experiment: Antiplasmodial activity, Malstat (pLDH) assay; type: cell-based, Plasmodium falciparum; settings: for IC50: 72 h, read-out: P. falciparum IC50; for P. falciparum SI: selectivity index vs MRC-5 cytotoxicity
Description: as §1
Chloroquine-resistant P. falciparum K 1-strain was cultured in human erythrocytes O^+ at 37 °C under a low oxygen atmosphere (3% O2, 4% CO2, and 93% N2) in RPMI-1640, supplemented with 10% human serum. Infected human red blood cells (200 μL, 1% parasitaemia, 2% haematocrit) were added to each well and incubated for 72 h. After incubation, test plates were frozen at −20 °C. Parasite multiplication was measured using the Malstat assay, a colorimetric method based on the reduction of 3-acetyl pyridine adenine dinucleotide (APAD) by parasite-specific lactate-dehydrogenase (pLDH).

P. falciparum = settings: cited from earlier work; for IC50: converted value in brackets, read-out: antiplasmodial IC50
[3] = Cytotoxicity against MRC-5 cells, resazurin; type: cell-based; settings: human, MRC-5 SV2 fibroblast cells, pure compounds
Description: as §1
MRC-5 SV2 cells were cultivated in MEM, supplemented with L-glutamine (20 mM), 16.5 mM sodium hydrogen carbonate and 5% FCS. For the assay, 10^4 MRC-5 cells/well were seeded onto the test plates containing the pre-diluted sample and incubated at 37 °C and 5% CO2 for 72 h. Cell viability was assessed fluorimetrically after 4 h of addition of resazurin. Fluorescence was measured (excitation 550 nm, emission 590 nm) and the results were expressed as % reduction in cell viability compared to control.

L. donovani = settings: cited from earlier work
T. cruzi = tested on: T. cruzi; set-up: method as in PMID 12802734; settings: ref 26; cited from earlier work
[4] = tested on: Trypanosoma brucei Squib-427 strain (suramin-sensitive); experiment: Antitrypanosomal activity, T. brucei trypomastigotes, resazurin; type: cell-based; settings: for IC50: 72 h, pure compounds; for T. brucei SI: selectivity index vs MRC-5 cytotoxicity
Description: as §1, §2

[5] = tested on: L. infantum MHOM/MA(BE)/67 amastigotes; experiment: Antileishmanial activity, intracellular amastigotes in primary peritoneal mouse macrophages; type: cell-based, Leishmania infantum; settings: for IC50: pure compounds, intracellular amastigotes, 5 days; for L. infantum SI: selectivity index vs MRC-5 cytotoxicity
Description: The integrated panel of microbial screens and standard screening methodologies were adopted as previously described. All assays were performed in triplicate at the Laboratory of Microbiology, Parasitology and Hygiene at the University of Antwerp (Belgium). […] Selectivity of activity was assessed by simultaneous evaluation of cytotoxicity on a fibroblast (MRC-5) cell line. […] L. infantum MHOM/MA(BE)/67 amastigotes were collected from the spleen of an infected donor hamster and used to infect primary peritoneal mouse macrophages. To determine in vitro antileishmanial activity, 3 × 10^4 macrophages were seeded in each well of a 96-well plate. After 2 days outgrowth, 5 × 10^5 amastigotes/well, were added and incubated for 2 h at 37 °C. Pre-diluted plant extracts were subsequently added and the plates were further incubated for 5 days at 37 °C and 5% CO2. Parasite burdens (mean number of amastigotes/macrophage) were microscopically assessed on 500 cells after Giemsa staining of the […] expressed as a percentage of the blank controls without plant extract.

T. brucei = tested on: T. brucei; set-up: method as in PMID 21782916, PMID 17637068; settings: ref 24, 25, cited from earlier work
[6] = tested on: peripheral blood mononuclear cells; set-up: method as in PMID 22468852; settings: ref 31; cited from earlier work
[7] = Trypanosoma cruzi, TULAHUEN, MRC5, 168 h
[8] = Plasmodium falciparum, pure compounds, K1 strain
[9] = Leishmania infantum, Macrophage, 120 h
[10] = at the highest concentration tested (64 µg/mL)

Row | Structure (SMILES) | IC50 [1, 7] | IC50 [2, 8] | IC50 at 72 h [3] | IC50 ([4]; Trypanosoma brucei) | T. brucei SI [4] | IC50 [5, 9] | L. infantum SI [5] | T. cruzi SI [1] | also measured
1 | C[C@@H]1CC[C@]2(C)CC[C@]3(C)C(=C[C@@H](O)C4[C@@]5(C)CC[C@H](O)C(C)(C)C5CC[C@]43C)C2[C@H]1C (stereo partly drawn) (hydrate or solvate) [Cmpd. 5, 3β,11α-Dihydroxyurs-12-ene] | – | – | – | – | – | – | – | – | melting point: 205 °C
2 | O=C(Cn1ccnc1[N+](=O)[O-])NCc1ccccc1 [Benznidazole, reference compound] | 1.9 ± 0.3 µM | – | – | – | – | – | – | – | –
3 | CCN(CC)CCCC(C)Nc1ccnc2cc(Cl)ccc12 (stereo not shown) [Chloroquine, reference compound] | – | – | – | – | – | – | – | – | IC50 ([2]; Plasmodium falciparum): 0.3 ± 0.05 µM
4 | C[C@H]1[C@H](C)CC[C@]2(C(=O)O)CC[C@]3(C)C(=CC[C@@H]4[C@@]5(C)CC[C@H](O)C(C)(C)[C@@H]5CC[C@]43C)[C@H]12 [Cmpd. 3, 3β-hydroxy-urs-12-en-28-oic acid] | 8.8 ± 2.3 µM | 29.7 ± 5.9 µM | 11.4 ± 2.1 µM | 2.2 ± 0.6 µM | 5.2 | 7.4 ± 1.9 µM | 1.5 | 1.3 | IC50 (P. falciparum; ref 28): 6.8 µM; IC50 (P. falciparum; ref 29): 10.7 µM; antiplasmodial IC50 (P. falciparum; ref 28): 3.1 µg/mL; antiplasmodial IC50 (P. falciparum; ref 29): 4.9 µg/mL; P. falciparum SI [2]: <1; IC50 (L. donovani; converted value in brackets, ref 27): 7.6 µM; L. donovani IC50 (L. donovani; ref 27): 3.5 µg/mL; IC50 (T. cruzi): 21 µM; IC50 (T. brucei; converted value in brackets): 2.2 µM; T. brucei IC50 (T. brucei): 1.0 ± 0.2 µg/mL
5 | C[C@H]1[C@H](C)CC[C@@]2(C)[C@@H]1C1=CC[C@@H]3[C@@]4(C)CC[C@H](O)C(C)(C)[C@@H]4CC[C@@]3(C)[C@]1(C)C[C@@H]2O [Cmpd. 4, urs-12-ene-3β,16β-diol] | 9.3 to 9.9 µM | 9.3 to 9.9 µM | > 64 µM | 2.3 ± 0.4 µM | >27.8 | 9.3 to 9.9 µM | >6.9 | >6.5 | IC50 ([2]; pure compounds, K1 strain): 9.7 ± 3.2 µM; P. falciparum SI [2]: >6.6; P. falciparum SI ([2]; listed as Brein (4)): > 6.5; T. brucei SI ([4]; listed as Brein (4)): > 27.8; IC50 [5]: 9.3 ± 2.2 µM; L. infantum SI ([5]; listed as Brein (4)): > 6.5; melting point: 221 °C; IC50 [1]: 9.9 ± 2.6 µM; T. cruzi SI ([1]; listed as Brein (4)): > 6.5
6 | C[C@@H]1CC[C@]2(C)CC[C@]3(C)C(=C[C@@H](O)C4[C@@]5(C)CC[C@H](O)C(C)(C)C5CC[C@]43C)C2[C@H]1C (stereo partly drawn) [Cmpd. 5, 3β,11α-Dihydroxyurs-12-ene] | 8.1 ± 1.8 µM | 23.9 ± 5.7 µM | > 64 µM | 7.9 µM | >8.2 | 3.2 ± 0.9 µM | >20 | >7.9 | IC50 [4]: 7.8 ± 1.8 µM; L. infantum SI ([5]; listed as Compound 5): > 20
7 | C[C@@H]1CCC23CC[C@]4(C)[C@@](C=CC5[C@@]6(C)CC[C@H](O)C(C)(C)C6CC[C@]54C)(OC2=O)C3[C@H]1C (stereo partly shown) [Cmpd. 6, 3-Hydroxy-13,28-epoxyurs-11-en-28-one] | > 64 µM | > 64 µM | > 64 µM | 40.9 ± 8.1 µM | – | > 64 µM | – | – | cytotoxicity towards peripheral blood mononuclear cells [6]: without cytotoxicity; antiprotozoal activity (P. falciparum) [2, 10]: devoid of any antiprotozoal activity; IC50 (L. donovani; ref 31): 192 µM; antiprotozoal activity (L. infantum) [5, 10]: devoid of any antiprotozoal activity; antiprotozoal activity (T. cruzi) [1, 10]: devoid of any antiprotozoal activity
8 | CCCCCCCCCCCCCCCCOP(=O)([O-])OCC[N+](C)(C)C [Miltefosine, reference compound] | – | – | – | – | – | 10.4 ± 2.1 µM | – | – | IC50 (L. donovani; ref 31): 9.31 µM
9 | Cc1ccc(C(=O)Nc2ccc(S(=O)(=O)O)c3cc(S(=O)(=O)O)cc(S(=O)(=O)O)c23)cc1NC(=O)c1cccc(NC(=O)Nc2cccc(C(=O)Nc3cc(C(=O)Nc4ccc(S(=O)(=O)O)c5cc(S(=O)(=O)O)cc(S(=O)(=O)O)c45)ccc3C)c2)c1 [Suramine, reference compound] | – | – | – | 0.03 ± 0.01 µM | – | – | – | – | –
